Measured values reported in ChEMBL document CHEMBL1255486, “Effect of vicriviroc on the QT/corrected QT interval and central nervous system in healthy subjects” (Antimicrob Agents Chemother, 2010).

Columns and labels:
[1] = AUC (0 to infinity) in healthy human at 250 mg/kg, po administered as single dose after 1 day; assay type: ADME, organism-based; design: time infinity, dose 250 mg/kg, route oral; conditions: plasma
Homo sapiens [2] = assay: Toxicity in healthy human assessed as pollakiuria at 300 […], po administered as single dose; assay type: organism-based; design: route oral; conditions: in vivo
[3] = Cmax in healthy human at 150 […], po after 10 days; assay type: ADME, organism-based; design: dose 150 mg/kg, route oral; conditions: in vivo
Homo sapiens [4] = assay: Toxicity in healthy human assessed as nausea at 150 […], po once daily for 7 days; assay type: organism-based; design: route oral; conditions: in vivo, 168 h
Homo sapiens [5] = assay: Toxicity in healthy human assessed as pollakiuria at 250 […], po once daily for 7 days; assay type: organism-based; design: route oral; conditions: in vivo, 168 h
[6] = Tmax in healthy human at 150 […], po once daily for 7 days; assay type: ADME, organism-based; design: dose 150 mg/kg, route oral; conditions: in vivo
Homo sapiens [7] = assay: Toxicity in healthy human assessed as fatigue at 200 […], po administered as single dose; assay type: organism-based; design: route oral; conditions: in vivo
[8] = Tmax in healthy human at 200 mg/kg, po once daily for 7 days measured after 1 day of last dose; assay type: ADME, organism-based; design: dose 200 mg/kg, route oral; conditions: in vivo
[9] = AUC (0 to infinity) in healthy human at 200 mg/kg, po administered as single dose after 1 day; assay type: ADME, organism-based; design: time infinity, dose 200 mg/kg, route oral; conditions: plasma
Homo sapiens [10] = assay: Toxicity in healthy human assessed as puncture site pain at 300 […], po administered as single dose; assay type: organism-based; design: route oral; conditions: in vivo
Homo sapiens [11] = assay: Toxicity in healthy human assessed as EEG abnormality at 250 mg/kg, po administered as single dose; assay type: organism-based; design: dose 250 mg/kg, route oral; conditions: in vivo
Homo sapiens [12] = assay: Toxicity in healthy human assessed as headache at 200 […], po once daily for 7 days; assay type: organism-based; design: route oral; conditions: in vivo, 168 h
Homo sapiens [13] = assay: Cardiotoxicity in healthy human assessed as change in corrected QT interval at 150 […], po after 10 days by ECG; assay type: toxicity, organism-based; design: dose 150 mg/kg, route oral; conditions: in vivo, 240 h
Homo sapiens [14] = assay: Toxicity in healthy human assessed as nausea at 200 […], po administered as single dose; assay type: organism-based; design: route oral; conditions: in vivo
[15] = AUC (0 to 24 hrs) in healthy human at 200 mg/kg, po once daily for 7 days; assay type: ADME, organism-based; design: time < 24 hr, dose 200 mg/kg, route oral; conditions: plasma
Homo sapiens [16] = assay: Toxicity in healthy human assessed as EEG abnormality at 200 mg/kg, po administered as single dose; assay type: organism-based; design: dose 200 mg/kg, route oral; conditions: in vivo
Homo sapiens [17] = assay: Toxicity in healthy human assessed as pollakiuria at 150 […], po once daily for 7 days; assay type: organism-based; design: route oral; conditions: in vivo, 168 h
Homo sapiens [18] = assay: Toxicity in healthy human assessed as headache at 250 […], po administered as single dose; assay type: organism-based; design: route oral; conditions: in vivo
Homo sapiens [19] = assay: Toxicity in healthy human assessed as nausea at 300 […], po administered as single dose; assay type: organism-based; design: route oral; conditions: in vivo
Homo sapiens [20] = assay: Toxicity in healthy human assessed as EEG abnormality at 200 mg/kg, po once daily for 7 days; assay type: organism-based; design: dose 200 mg/kg, route oral; conditions: in vivo, 168 h
Homo sapiens [21] = assay: Toxicity in healthy human assessed as fatigue at 250 […], po administered as single dose; assay type: organism-based; design: route oral; conditions: in vivo
Homo sapiens [22] = assay: Toxicity in healthy human assessed as nausea at 200 […], po once daily for 7 days; assay type: organism-based; design: route oral; conditions: in vivo, 168 h
Homo sapiens [23] = assay: Toxicity in healthy human assessed as nausea at 250 […], po once daily for 7 days; assay type: organism-based; design: route oral; conditions: in vivo, 168 h
[24] = AUC (0 to 24 hrs) in healthy human at 200 mg/kg, po once daily for 7 days measured after 1 day of last dose; assay type: ADME, organism-based; design: time < 24 hr, dose 200 mg/kg, route oral; conditions: plasma
[25] = Tmax in healthy human at 30 mg/kg, po after 10 days; assay type: ADME, organism-based; design: dose 30 mg/kg, route oral; conditions: in vivo
Homo sapiens [26] = assay: Toxicity in healthy human assessed as headache at 150 […], po once daily for 7 days; assay type: organism-based; design: route oral; conditions: in vivo, 168 h
[27] = Cmax in healthy human at 30 mg/kg, po after 10 days; assay type: ADME, organism-based; design: dose 30 mg/kg, route oral; conditions: in vivo
Homo sapiens [28] = assay: Toxicity in healthy human assessed as EEG abnormality at 300 mg/kg, po administered as single dose; assay type: organism-based; design: dose 300 mg/kg, route oral; conditions: in vivo
[29] = Cmax in healthy human at 250 mg/kg, po administered as single dose after 1 day; assay type: ADME, organism-based; design: dose 250 mg/kg, route oral; conditions: in vivo
Homo sapiens [30] = assay: Toxicity in healthy human assessed as fatigue at 200 […], po once daily for 7 days; assay type: organism-based; design: route oral; conditions: in vivo, 168 h
[31] = Cmax in healthy human at 150 […], po once daily for 7 days; assay type: ADME, organism-based; design: dose 150 mg/kg, route oral; conditions: in vivo
[32] = AUC (0 to infinity) in healthy human at 300 mg/kg, po administered as single dose after 1 day; assay type: ADME, organism-based; design: time infinity, dose 300 mg/kg, route oral; conditions: plasma
Homo sapiens [33] = assay: Toxicity in healthy human assessed as pollakiuria at 250 […], po administered as single dose; assay type: organism-based; design: route oral; conditions: in vivo
[34] = Tmax in healthy human at 200 mg/kg, po administered as single dose after 1 day; assay type: ADME, organism-based; design: dose 200 mg/kg, route oral; conditions: in vivo
Homo sapiens [35] = assay: Toxicity in healthy human assessed as pollakiuria at 200 […], po administered as single dose; assay type: organism-based; design: route oral; conditions: in vivo
Homo sapiens [36] = assay: Toxicity in healthy human assessed as fatigue at 150 […], po once daily for 7 days; assay type: organism-based; design: route oral; conditions: in vivo, 168 h

AUC(0-inf) [1]: 11000 ng·h/mL
Cmax [3]: 1900 ng/mL
Tmax [6]: 1.5 h
Tmax [8]: 1.75 h
AUC(0-inf) [9]: 6050 ng·h/mL
AUC at 24 h [15]: 8140 ng·h/mL
AUC at 24 h [24]: 5390 ng·h/mL
Tmax [25]: 2 h
Cmax [27]: 403 ng/mL
Cmax [29]: 984 ng/mL
Cmax [31]: 649 ng/mL
AUC(0-inf) [32]: 10100 ng·h/mL
Tmax [34]: 2 h
SMILES: COC[C@@H](c1ccc(C(F)(F)F)cc1)N1CCN(C2(C)CCN(C(=O)c3c(C)ncnc3C)CC2)C[C@@H]1C [VICRIVIROC]
Activity (Homo sapiens [2]): 0%
Activity (Homo sapiens [4]): 17%
Activity (Homo sapiens [5]): 0%
Activity (Homo sapiens [7]): 0%
Activity (Homo sapiens [10]): 17%
Activity (Homo sapiens [11]): 0%
Activity (Homo sapiens [12]): 13%
Activity (Homo sapiens [13]): Non-toxic
Activity (Homo sapiens [14]): 0%
Activity (Homo sapiens [16]): 0%
Activity (Homo sapiens [17]): 38%
Activity (Homo sapiens [18]): 38%
Activity (Homo sapiens [19]): 13%
Activity (Homo sapiens [20]): 0%
Activity (Homo sapiens [21]): 13%
Activity (Homo sapiens [22]): 13%
Activity (Homo sapiens [23]): 13%
Activity (Homo sapiens [26]): 50%
Activity (Homo sapiens [28]): 13%
Activity (Homo sapiens [30]): 0%
Activity (Homo sapiens [33]): 0%
Activity (Homo sapiens [35]): 0%
Activity (Homo sapiens [36]): 50%
